Results reported in patent publication US20240246960A1 (adMare Therapeutics Society, priority 2021, published 2024).
Where two headings read alike, the source gives them in different places.

Key:
[1] = molecular target: T1, DNA-PK (Homo sapiens, UniProt P78527); test: DNA-PK Assay for Biochemical Enzymatic Inhibition (ADP Glo Kinase assay); settings: Table 1
T1 construct: purchased Invitrogen PR9107A
Outline: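 Human DNA-PK (25 ng) preincubated 15 min with compounds (ten three-fold dilutions) in HEPES pH 7.5, MgCl2, KCl, calf thymus DNA buffer, then substrate 434.4 μM and ATP 64.4 μM (final) for 60 min at room temperature. ADP-Glo luminescence; percent inhibition fitted by four-parameter regression for IC50.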

[2] = Microsomal stability assay, mouse liver microsomes; settings: for microsomal CLint at 0.1 uM: male, CD-1, mouse, liver microsomes, pH 7.4, Microsomal Stability Mouse Clint, 0.1 mg/mL microsomes, 0.1 uM compound
Method: Mouse liver microsomes were obtained from a pool of 250 or more male CD-1 mice. […] Final microsomal concentration was 0.1 mg/mL and test compound concentration was 0.1 uM with a maximum of 0.01% DMSO. The test compound was pre-incubated with pooled liver microsomes in phosphate buffer (pH 7.4) for 5 min in a 37° C. shaking water bath. The reaction was initiated by adding NADPH-generating system and incubated for 0, 15, 30, 45, and 60 min. The reaction was stopped by transferring the incubation mixture to acetonitrile/methanol. Samples were then mixed and centrifuged. Supernatants were used for HPLC-MS/MS analysis. The HPLC system consisted of a binary LC pump with autosampler, a C-18 column, and a gradient. Peak areas corresponding to the test compound were recorded. The compound remaining was calculated by comparing the peak area at each time point to time zero. The half-life was calculated from the slope of the initial linear range of the logarithmic curve of compound remaining (%) vs. time, assuming first order kinetics. In addition, the intrinsic clearance (Clint) was calculated from the half-life.

[3] = molecular target: T2, DNA-PK phosphorylation at Serine 2056 (Homo sapiens, UniProt P78527); test: Cellular Assay for Inhibition of DNA-PK Phosphorylation at Serine 2056 (FaDu cells, neocarzinostatin, sandwich ELISA); assay type: cell-based; settings: Table 1
T2 construct: host or cells: FaDu
Outline: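 Readout was pSer2056 and total DNA-PK, measured by sandwich ELISA on protein-normalized lysates. Prior to lysis, compound was applied to FaDu cells for 1 h (0.3% DMSO), followed by 2 h of 1 μg/mL neocarzinostatin. IC50 values were fitted from log concentration versus % inhibition normalized to DMSO and NCS controls.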

[4] = molecular target: T3, pDNA-PK ser2056 induction in HCT116 spheroids (Homo sapiens, UniProt P78527); test: Multicellular tumour spheroid + radiation, pDNA-PK inhibition, HCT116; assay type: cell-based; settings: 20 Gy
T3 construct: endogenous in cells; host or cells: HCT116 multicellular tumour spheroids
Method: Multicellular tumour spheroids determination of compound inhibition of pDNA-PK induction following radiation. Tumour spheroids were grown to approximately 0.5 mm in diameter and irradiated with 20 Gy in combination with inhibitor test compounds to determine their potency. Inhibitor concentration for 50% reduction in pDNA-PK induction (IC50) was determined via immunohistochemical staining in spheroid cryosections taken 2 hours following radiation.
Spheroid, Cell Line: […], Immunohistochemical endpoint, pDNA-PK inhibition, EC50 in μm.
(§1) Spheroid+radiation pDNA-PK. Radiation: 20 Gy. Drug: serial dilution 5 or 10 μM down to 3.5 nM (11 wells). Spheroids: 3-6 spheroids per well (300-500 μm diameter). 20% O2 and 5% CO2. 96 well plate format.
Protocol: pre-incubate 1 hours with drug, irradiate with 20 Gy, post-incubate 2 hours with drug, freeze and cryosection ×3 replicates.
Endpoint: fluorescent immunostin pDNA-PK ser2056 and image on microscope.
Analysis: determine EC50 concentration that decreases pDNA-PK induction by 50% after radiation.
Multicellular tumour spheroids determination of compound inhibition of pDNA-PK induction following radiation. Tumour spheroids were grown to approximately 0.5 mm in diameter and irradiated with 20 Gy in combination with inhibitor test compounds to determine their potency. Inhibitor concentration for 50% reduction in pDNA-PK induction (IC50) was determined via immunohistochemical staining in spheroid cryosections taken 2 hours following radiation. For cell survival endpoint 8 Gy radiation was used and 3 hours following radiation spheroids were dissociated, counted and plated for colony forming endpoint.
as §1, with “format. Endpoint: fluorescent immunostain pDNA-PK ser2056 and image on microscope. Analysis: determine EC50 concentrations that decreases pDNA-PK induction […] after irradiation.” for “format.”
Multicellular tumour spheroids were used to determine potency of test compounds in a 3D tissue environment using inhibition of pDNA-PK induction following radiation or cell survival as the endpoint. For the pDNA-PK endpoint HCT116 or FaDU tumour spheroids were grown to approximately 0.5 mm in diameter and irradiated with 20 Gy in combination with inhibitor test compounds to determine their potency. Experiments were carried out in 96 well plates containing 0.7 mls of MEM media containing 10% FBS and 10 mM glucose under 20% O2 & 5% CO2 at 37° C. Following dilution of compounds 1:1000 from DMSO stocks, compounds were serially diluted from 10 μM down to 3.5 nM and 5-10 spheroids added. 96 well plates were constantly stirred to avoid spheroids settling during the course of the experiment. The inhibitor concentration for 50% reduction in pDNA-PK induction (EC50) was determined via immunohistochemical staining in spheroid cryosections taken 2 hours following radiation using anti-pDNA-PK (ser 2056) and fixed immediately in formalin following sectioning. For cell survival endpoint 8 Gy radiation was used and, 3 hours following radiation, spheroids were dissociated, counted and plated for colony forming endpoint. Data presented in the table compound potency as EC50 [μM].

[5] = Example 7, spheroid, cell line HCT115 [sic], 20% O2, read-out: EC50 (pDNA-PK inhibition, immunohistochemical endpoint)
[6] = Example 8, spheroid, read-out: Cell line: HCT116 Immunohistochemical endpoint pDNA-PK inhibition EC50
[7] = Example 9 Study 2, 20% O2, read-out: Spheroid Cell line: HCT116 Immunohistochemical endpoint pDNA-PK inhibition EC50

Row | IC50 [1] [nM] | Microsomal Stability (mouse) % rem. 60 min [2] | microsomal CLint at 0.1 uM [2] [µL/min/mg] | IC50 [3] [nM] | EC50 [4, 5] [nM] | EC50 [4, 7] [nM] | SMILES | EC50 [4, 6] [nM]
1 | 1 to 10 | – | – | 1000 to 10000 | 10000 to 100000 | 10000 to 100000 | CC(C)S(=O)(=O)Nc1cnc2cc(N3CCOCC3)nc(O[C@H]3CC[C@@H](Nc4ncccn4)CC3)c2c1 [Compound 187, N-(7-morpholino-5-(((1s,4s)-4-(pyrimidin-2-ylamino)cyclohexyl)oxy)-1,6-naphthyridin-3-yl)propane-2-sulfonamide] | –
2 | < 0.5 | – | – | 100 to 1000 | 1000 to 10000 | 1000 to 10000 | CCS(=O)(=O)Nc1cnc2cc(N3CCOCC3)nc(O[C@H]3CC[C@@H](Nc4ncccn4)CC3)c2c1 [Compound 188, N-(7-morpholino-5-(((1s,4s)-4-(pyrimidin-2-ylamino)cyclohexyl)oxy)-1,6-naphthyridin-3-yl)ethanesulfonamide] | –
3 | 1 to 10 | – | – | 1000 to 10000 | 10000 to 100000 | 10000 to 100000 | CCCS(=O)(=O)Nc1cnc2cc(N3CCOCC3)nc(O[C@H]3CC[C@@H](Nc4ncccn4)CC3)c2c1 [Compound 189, N-(7-morpholino-5-(((1s,4s)-4-(pyrimidin-2-ylamino)cyclohexyl)oxy)-1,6-naphthyridin-3-yl)propane-1-sulfonamide] | –
4 | 0.5 to 1 | – | – | < 100 | 500 to 1000 | 500 to 1000 | CN(c1ncccn1)[C@H]1CC[C@@H](Oc2nc(N3CCOCC3)cc3ncc(NS(C)(=O)=O)cc23)CC1 [Compound 198, N-(5-(((1s,4s)-4-(methyl(pyrimidin-2-yl)amino)cyclohexyl)oxy)-7-morpholino-1,6-naphthyridin-3-yl)methanesulfonamide] | –
5 | 0.5 to 1 | – | – | 100 to 1000 | 1000 to 10000 | 1000 to 10000 | N#Cc1cnc2cc(N3CCOCC3)nc(O[C@H]3CC[C@@H](Nc4ncccn4)CC3)c2c1 [Compound 200a, 7-morpholino-5-(((1s,4s)-4-(pyrimidin-2-ylamino)cyclohexyl)oxy)-1,6-naphthyridine-3-carbonitrile] | –
6 | 1 to 10 | – | – | 10000 to 30000 | 10000 to 100000 | 10000 to 100000 | COc1cnc(N[C@H]2CC[C@@H](Oc3nc(N4CCOCC4)cc4ncc(I)cc34)CC2)nc1 [Compound 201, N-((1s,4s)-4-((3-iodo-7-morpholino-1,6-naphthyridin-5-yl)oxy)cyclohexyl)-5-methoxypyrimidin-2-amine] | –

The remaining lines, values behind:

Row | SMILES | IC50 [1] [nM] | Microsomal Stability (mouse) % rem. 60 min [2] | microsomal CLint at 0.1 uM [2] [µL/min/mg] | IC50 [3] [nM] | EC50 [4, 5] [nM] | EC50 [4, 7] [nM] | EC50 [4, 6] [nM]
7 | C[C@]1(n2ccnc2)CC[C@@H](Oc2nc(N3CCOCC3)cc3ncccc23)CC1 [Compound 11, 4-(5-(((1s,4s)-4-(1H-imidazol-1-yl)-4-methylcyclohexyl)oxy)-1,6-naphthyridin-7-yl)morpholine] | 10 to 150 | E (% remaining = 0-25%) | > 116 | – | – | – | –
8 | c1cnc2cc(N3CCOCC3)nc(O[C@H]3CC[C@@H](n4cnnn4)CC3)c2c1 [Compound 17l, 4-(5-(((1s,4s)-4-(1H-tetrazol-1-yl)cyclohexyl)oxy)-1,6-naphthyridin-7-yl)morpholine] | – | E (% remaining = 0-25%) | > 116 | – | – | – | –
9 | O=C(N[C@H]1CC[C@@H](Oc2nc(N3CCOCC3)cc3ncccc23)CC1)c1ccccc1 [Compound 110, N-((1s,4s)-4-((7-Morpholino-1,6-naphthyridin-5-yl)oxy)cyclohexyl)benzamide] | < 0.5 | – | – | < 100 | 1000 to 10000 | 1000 to 10000 | 1000 to 10000
10 | O=C(N[C@H]1CC[C@@H](Oc2nc(N3CCOCC3)cc3ncccc23)CC1)C1CCCO1 (stereo partly shown) [Compound 134, N-((1s,4s)-4-((7-Morpholino-1,6-naphthyridin-5-yl)oxy)cyclohexyl)tetrahydrofuran-2-carboxamide] | 1 to 10 | – | – | 1000 to 10000 | 10000 to 100000 | 10000 to 100000 | 10000 to 100000
11 | O=C(N[C@H]1CC[C@@H](Oc2nc(N3CCOCC3)cc3ncc(Br)cc23)CC1)c1ncccn1 [Compound 176, N-((1s,4s)-4-((3-bromo-7-morpholino-1,6-naphthyridin-5-yl)oxy)cyclohexyl)pyrimidine-2-carboxamide] | 0.5 to 1 | – | – | 100 to 1000 | 1000 to 10000 | 1000 to 10000 | –
